≈ marks a conversion by molar mass, not a printed value. Positions of bridges follow the written chain, without caps; N, C: chain ends. Residues, ends and D or L forms follow the SMILES beside them. A value given as a limit tells only on which side of the number the result lay.

The subject of assay [1] is S. aureus ATCC 43300. Description: Mouse mastitis model, bacterial counts in mammary tissues. It is filed as in vivo. To be noted: 24 h after treatment, vs PC group. From the text: The 7 to 8-weeks old ICR mice (80 females, 40 males) were housed in independent ventilated cages, and feed with autoclaved laboratory food and water. Female mice in heat were put into the cage of males (females:males, 2:1) overnight and checked for vaginal plugs at the following morning to induce pregnancy. ICR-lactating mice were used at 6 to 8 days after the birth of the offspring. The mouse mastitis model was established as previously described (Li et al. [2017]). Mice were randomly divided into nine groups: NC group (uninfected group), PC group (infected but without treatment), NZX groups (25, 50, 100, 200 and 400 μg/gland, respectively), lincomycin group (100 μg/gland), and ceftiofur group (100 μg/gland). Each experimental group has six independent experiments with three mice. Specially, the pups were removed 1 h before the intramammary injection of both L4 (on the left) and R4 (on the right) abdominal mammal glands. A 100 μL of S. aureus strains (1 × 10^6 CFU/mL) was administrated to mice in PC, NZX, lincomycin and ceftiofur groups, and the same volume of sterile physiological saline was administrated to mice in NC group. Glands of 3 h post-infection were injected with sterile physiological saline, NZX, lincomycin, or ceftiofur. The mice were euthanized after the treatment for 24 h, and their mammary glands were dissected, weighed, and homogenized. The animal experiments were performed according to the Animal Care and Use Committee of the Feed Research Institute, Chinese Academy of Agricultural Sciences (Permit Number: AEC-CAAS-20090609) in accordance with the Guidelines for Animal Experimentation.
After mouse sacrifice, one part of mammary tissue was taken for bacterial count, and the other part was used for the histopathological analysis. Specifically, tissues were aseptically collected immediately from the dead mice, weighted, homogenized with sterile physiological saline (1:1, W:V). Next, the homogenates were serially diluted (ten-fold dilutions) in physiological saline, plated on MHA plate, and then cultured overnight at 37 °C. The bacterial number on each plate was counted and the results were expressed as Log10 CFU per gram of mammary tissues. In addition, mammary tissues were fixed in 4% paraformaldehyde, then embedded in paraffin, cut into 5 μm sections, and later stained by hematoxylin–eosin (H&E). The stained sections were observed under a light microscope (× 200) for pathological morphology and scoring of mammary tissues (Schmidt et al. [1992]).

Assay [2] has as its system S. aureus ATCC 43300. Description: Post antibiotic effect (PAE). As to conditions: 2 h exposure at 1 × to 8 × MIC, 1 × 10^8 CFU/mL, triplicate. Format: cell-based, Staphylococcus aureus. Here is the method: PAE was performed based on the method of Zhang et al. (Zhang et al. [2014]). S. aureus E48, S. aureus ATCC 25923 and S. aureus ATCC 43300 were cultured at 37 °C in MHB medium to the log-phase. Then, the diluted cells (1 × 10^8 CFU/mL) were exposed to NZX with final concentration of 1 × , 2 × , 4 × and 8 × MIC in the 48-well plates for 2 h at 37 °C. After incubation, NZX were removed by diluting 1:1000 with MHB medium. Viable counts were determined immediately after drug reconstruction and at 1–2 h interval for at least 10 h. PAE determination was calculated as PAE (h) = T-C, where T is the time (h) that required to increase by tenfold for the drug-treated viable count from the moment of drug reconstruction and C is the time (h) required to increase by tenfold for cell density without treatment. The experiments were conducted in triplication.

Assay [3] deals with S. aureus ATCC 43300. Put plainly: Mutant prevention concentration (MPC) on MHA plates. To be noted: 1 × 10^10 CFU/mL, 37 °C, 72 h, each concentration three times. Format: cell-based, Staphylococcus aureus. Here is the method:
(§1) Minimal Inhibitory Concentration (MIC), Minimal Bactericidal Concentration (MBC) and Mutant Prevention Concentration (MPC).
MPCs of NZX against the test S. aureus strain were determined as described by Plowgian et al., with some modification (Plowgian et al. [2019]). In brief, S. aureus cells were cultured to mid-log phase in Mueller–Hinton broth (MHB) medium. Then the suspensions were centrifuged (4000 rpm for 5 min) and the pellets were collected and diluted to a final concentration of 1 × 10^10 CFU/mL with MHB. […] All plates were incubated at 37 ^∘C for 72 h and the concentration corresponding to the plate with no bacterial growth was regarded as the provisional mutant prevention concentration (MPCpr). […] Lincomycin and ceftiofur were set as antibiotic controls, respectively. Each concentration was conducted three times.

The subject of assay [4] is S. aureus ATCC 25923. Put plainly: In vitro dose-killing curves (24 h). It is filed as cell-based, Staphylococcus aureus. To be noted: for EC50: Staphylococcus aureus, ATCC25923, 50% reduction in Log10 CFU at 24 h between minimum and maximum; for Cs: concentration causing no apparent growth in Log10 CFU at 24 h vs initial inoculum. On the procedure:
The in vitro dose-killing curves of NZX against the test S. aureus strains were conducted as previous described (Brinch et al. [2010]), with some modification. The S. aureus cells in mid-log phage were diluted. Then, the killing curves of NZX against S. aureus strains were carried out in the 48-well plate. Specifically, a volume of 50 μL NZX (0.6–150 μM) was mixed with 450 μL of the above diluted bacterial suspension (5 × 10^5 CFU/mL), and the mixtures were incubated in the Micro Oscillator for 24 h (600 rpm, 37 °C). Subsequently, the bacteria suspensions were plated on MHA medium to count. Lincomycin and ceftiofur were set as antibiotic controls, respectively. PBS was negative control. Results were expressed as the average of three independent experiments data.

Another assay relates to S. aureus E48. Put plainly: MIC and MBC determination (CLSI broth microdilution). It is filed as cell-based. As to conditions: Staphylococcus aureus; for MIC: 1 × 10^5 CFU/mL, 16–18 h, 37 °C; for MBC: lowest concentration giving 99.9% died bacteria. On the procedure: as §1
(§2) The MIC and MBC values of NZX against the test S. aureus strain were determined according to Clinical Laboratory Standards Institute (Watts et al. [2013]). Briefly, a volume of 10 μL diluted NZX with final concentration (1.25–1280 μg/mL) and 90 μL of mid-log phase S. aureus cells (1 × 10^5 CFU/mL) were added into a 96-well plate and co-incubated for 16–18 h at 37 °C. MIC value was defined as the lowest concentration of NZX at which no visible bacterial growth was observed. In addition, the bacteria suspensions were plated on Mueller–Hinton agar (MHA) medium to count, and the lowest concentration of NZX that results in 99.9% of died bacteria was the MBC value.

Assay [5] concerns S. aureus ATCC 25923. Described as above. Format: cell-based. As to conditions: Staphylococcus aureus; for MIC: ATCC25923, 1 × 10^5 CFU/mL, 16–18 h, 37 °C; for MBC: ATCC25923, lowest concentration giving 99.9% died bacteria. On the procedure: as §1, §2
Assay [6] relates to S. aureus ATCC 43300. The description is as above. It is filed as cell-based. As to conditions: Staphylococcus aureus; for MIC: ATCC43300, 1 × 10^5 CFU/mL, 16–18 h, 37 °C; for MBC: ATCC43300, lowest concentration giving 99.9% died bacteria. On the procedure: as §1, §2

Take `CC[C@H](C)[C@@H]1NC(=O)[C@H](CO)NC(=O)[C@H](CCCCN)NC(=O)[C@@H]2CSSC[C@@H](C(=O)N[C@@H](Cc3ccc(O)cc3)C(=O)O)NC(=O)[C@H](CCCCN)NC(=O)[C@@H]3CSSC[C@H](NC(=O)[C@H](CCC(N)=O)NC(=O)[C@H]([C@@H](C)CC)NC(=O)[C@H](CC(=O)O)NC(=O)[C@H](CC(=O)O)NC(=O)[C@H](CCC(=O)O)NC(=O)[C@H](CO)NC(=O)[C@H](Cc4c[nH]c5ccccc45)NC(=O)[C@@H]4CCCN4C(=O)CNC(=O)[C@H](CC(N)=O)NC(=O)[C@@H](NC(=O)CNC(=O)[C@H](Cc4ccccc4)NC(=O)CN)CSSC[C@H](NC(=O)[C@H](Cc4ccc(O)cc4)NC(=O)CNC(=O)CNC(=O)[C@H](CCCCN)NC(=O)[C@H](Cc4ccc(O)cc4)NC(=O)CNC(=O)[C@H](CCCCN)NC1=O)C(=O)N[C@@H](C)C(=O)N[C@@H](CCCNC(=N)N)C(=O)NCC(=O)NCC(=O)N[C@@H](Cc1ccccc1)C(=O)N[C@@H](C(C)C)C(=O)N3)C(=O)N[C@@H](Cc1c[nH]cn1)C(=O)N[C@@H](CC(N)=O)C(=O)N[C@@H](Cc1c[nH]cn1)C(=O)N2` [NZX] (H-GFGCNGPWSEDDIQCHNHCKSIKGYKGGYCARGGFVCKCY-OH; disulfide 4-30, 15-37, 19-39; N-terminus and C-terminus assumed): the “bacteria reduction in mammary tissues” value with S. aureus ATCC 43300 [1] (100 μg/gland intramammary) is recorded as 3.47 Log10 CFU/g; in the assay on S. aureus ATCC 43300 [1] (400 μg/gland intramammary), 8.81 Log10 CFU/g; with S. aureus ATCC 43300 [1] (range over 25 ~ 400 μg/gland intramammary), 0.66 ~ 8.81 Log10 CFU/g. In the assay with S. aureus ATCC 43300 [2], the “mean PAE range” value is 0.00 to 8.48 h. The MPC in the assay with S. aureus ATCC 43300 [3] was 1.18 µM.

Usually EC50 stands for the concentration at which the effect is half-maximal. What is called MIC is the lowest concentration found to suppress growth. For orientation: MBC means the lowest tested concentration that kills the bacteria rather than only halting them. Read a high MBC as less potent killing. As to `CCC[C@@H]1C[C@@H](C(=O)N[C@@H]([C@H]2O[C@H](SC)[C@H](O)[C@@H](O)[C@H]2O)[C@@H](C)O)N(C)C1` [Lincomycin], in the assay with S. aureus ATCC 25923 [4], the EC50 came to 2310 nM and the Cs came to 2.57 µM. Moreover, in the assay with S. aureus E48, the MIC worked out at 2.17 µM (≈ 0.882 µg/mL) and the MBC worked out at 4.34 µM (≈ 1.76 µg/mL). In the assay on S. aureus ATCC 25923 [5], this compound yielded an MIC of 2.17 µM (≈ 0.882 µg/mL) and an MBC of 4.34 µM (≈ 1.76 µg/mL). In the assay on S. aureus ATCC 43300 [6], this compound showed an MIC of over 139 µM and an MBC of over 139 µM.

Consider `CO/N=C(\C(=O)N[C@@H]1C(=O)N2C(C(=O)O)=C(CSC(=O)c3ccco3)CS[C@H]12)c1csc(N)n1` [Ceftiofur], for which the “bacteria reduction in mammary tissues” value in the assay on S. aureus ATCC 43300 [1] (100 μg/gland intramammary) is 4.82 Log10 CFU/g. Also, in the assay with S. aureus ATCC 25923 [4], the EC50 turned out to be 710 nM and the Cs was 0.77 µM. In the assay with S. aureus E48, this compound showed an MIC of 1.83 µM (≈ 0.958 µg/mL) and an MBC of 3.67 µM (≈ 1.92 µg/mL). In the assay with S. aureus ATCC 25923 [5], this compound came in with an MIC of 1.83 µM (≈ 0.958 µg/mL) and an MBC of 3.67 µM (≈ 1.92 µg/mL). In the assay with S. aureus ATCC 43300 [6], this compound gave an MIC of 1.83 µM (≈ 0.958 µg/mL) and an MBC of 1.83 µM (≈ 0.958 µg/mL). Further, the “mean PAE range” value in the assay with S. aureus ATCC 43300 [2] lay in the range of 0.82 to 1.76 h. This compound also had an MPC in the assay with S. aureus ATCC 43300 [3] of 7.32 µM.

Source of the values: publication PMC11636681, “Pharmacokinetics and pharmacodynamics of antibacterial peptide NZX in Staphylococcus aureus mastitis mouse model” (Applied Microbiology and Biotechnology, 2024).
